Measurements reported in patent US5270339A, “Phenoxybenzene derivative” (Kanagafuchi Kagaku Kogyo Kabushiki Kaisha, priority 1991, dated 1993).

Experiments:
[1] = system: forced swimming test with rats (duration of immobility); assay: Antidepressant activity: forced swimming test using rats; assay type: in vivo, Wistar male rats; settings: p.o., 30 mg/kg
Procedure: (§1) As experimental animals, Wistar male rats and ddY male mice were used for the tests after they were housed for a week under every 12 hours' dark-light cycle at room temperature of 24° to 26° C.
That is, a rat (5 week-old) was placed into a glass cylinder having the inside diameter of 18 cm and the height of 40 cm which contained water (water temperature: 25° C.) up to its height of 15 cm. After 15 minutes, the rat was picked up followed by drying and then returned to his home cage. After 24 hours, the rat was again placed into the water in the same cylinder. The duration of immobility (the time rat kept motionless) was accumulatively measured with a stopwatch for five minutes (a five minutes' test). Each test compound was suspended in saline. The administration was carried out three times, at 24, 5 and 1 hour before the five minutes' test in case of an intraperitoneal administration or with only a single administration at 1 hour before the five minutes' test in case of an oral administration to examine the antidepressant effect.
The duration of immobility in Table 4 is the mean value for […] in each group. Suppression is expressed as a ratio in percentage of a reduction of the duration of immobility in the group administered with the test compound to that in the control group administered with saline alone.

[2] = system: experimental amnesia in mice induced by cycloheximide; assay: Anti-amnesic effect: passive avoidance task (step-through), cycloheximide-induced amnesia; assay type: in vivo, ddY male mice; settings: for Step-through latency: mean of group
Procedure: as §1
The effect on experimental amnesia in mice induced by cycloheximide was evaluated.
The experiment was carried out using an experimental apparatus of passive avoidance task for mice (made by Ohara-ika-sangyo K. K.) comprising a box divided into the two compartments of dark and light. That is, the dark compartment [a box having a reverse trapezoid cross section (height: 8 cm, base line: 5 cm, oblique line: 9.5 cm) and having the length of 14 cm] was shield from a light with a black plastic case and was floored with stainless grids for giving an electrical shock so that an electricity might be turned on a determined time after interception of a photobeam placed in the dark compartment. The light compartment made of transparent plastic (a box of the same shape as that of the dark compartment having the length of 16 cm, lightened from a location spaced 25 cm above by a 60 W electric lamp) was provided adjacent to the dark compartment. Between the two compartments, there was provided a circular entrance having the diameter of 3 cm with a guillotine door which could be opened and closed. By using the above-mentioned dark-light box, the experiment was carried out according to the following procedure.
A mouse (5 week-old) previously conditioned in the dark-light box was put in the light compartment and the guillotine door was opened. Three seconds after the mouse moved into the dark compartment and interrupted the photobeam, 0.3 mA electrical shock was given to limbs for 3 seconds from the floor grid (aquisition trial). Just after the mouse rushed into the light compartment, the door was shut and the […] in the light compartment was picked out to return to his home cage. After 24 hours, the mouse was placed again in the light compartment and the period from the opening of the guillotine door to the time the mouse completely entered the dark compartment was recorded maximally 300 seconds as a step-through latency (retention trial).
The amnesia was induced by subcutaneous injection of cycloheximide (120 mg/kg) dissolved in saline 10 minutes before the aquisition trial. As a control, the same amount of saline alone was administered. […]
A ratio of number of mice showing the step-through latency of more than 100 seconds in the group was defined as a ratio of memory for convenience's sake.
The step-through latency in Table 2 was the mean value for each treated group.

M1 receptor = target: T1, M1 receptor (Rattus norvegicus, UniProt P08482); assay: Receptor binding activity, inhibition of [3H]pyrenzepine binding to M1; settings: 1 nM [3H]pyrenzepine, rat's brain except cerebellum; for inhibition at 10 µM: 10 μM test compound; for inhibition at 1 µM: 1 μM test compound
T1 construct: rat's brain except for cerebellum was homogenized; from tissue; host or cells: rat brain except cerebellum, homogenate
T1 sequence (P08482 1-460): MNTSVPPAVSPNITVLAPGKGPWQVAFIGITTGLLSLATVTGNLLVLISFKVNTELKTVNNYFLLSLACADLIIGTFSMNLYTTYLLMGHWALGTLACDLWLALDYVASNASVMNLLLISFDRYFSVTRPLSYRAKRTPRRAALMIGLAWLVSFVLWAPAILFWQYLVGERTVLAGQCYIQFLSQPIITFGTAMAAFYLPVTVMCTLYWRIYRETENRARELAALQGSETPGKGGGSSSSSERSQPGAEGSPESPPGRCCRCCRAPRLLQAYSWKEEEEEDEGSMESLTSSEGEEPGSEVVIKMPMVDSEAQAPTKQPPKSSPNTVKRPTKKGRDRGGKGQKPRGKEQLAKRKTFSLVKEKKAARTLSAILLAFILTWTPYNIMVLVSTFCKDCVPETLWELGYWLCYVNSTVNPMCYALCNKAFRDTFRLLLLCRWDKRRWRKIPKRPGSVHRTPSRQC
Procedure: The binding ability of the test compounds to M1 was determined according to a modification of the method of Watson et al. (Life Sci., 32, 3001 (1983)). […] The mixture was incubated for 1 hour. The inhibition rate (%) of the binding with [3H]pyrenzepine was evaluated. The higher inhibition means the higher affinity of the test compound for M1 receptor.

[3] = Acute toxicity test, oral; assay type: in vivo, ddY male mice; settings: mouse, in vivo, ddY mice, 2 weeks observation
Procedure: (§2) With respect to the compounds 1 to 86 shown in Table 1 as test compounds, the acute toxicity was examined using ddY mice according to the following method.
(§3) In each group, six male ddY mice weighing 27 to 30 g were employed. The compounds 1 to 86 suspended in an aqueous solution of 0.5% sodium carboxymethylcellulose were administered orally in a volume of 0.1 ml/10 g body weight. […] The LD50 (mg/kg) values were estimated from the ratio of the number of dead mice to the number of mice used.

ddY mice = assay: Acute toxicity test, oral; assay type: in vivo, ddY male mice; settings: dose of 200 mg/kg, 2 weeks
Procedure: as §2, §3

[4] = Mus musculus, 3 mg/kg oral, mice with latency > 100 seconds, read-out: Ratio of memory
[5] = Mus musculus, 1 mg/kg oral, mice with latency > 100 seconds, read-out: Ratio of memory

SMILES	Step-through latency ([2]; 3 mg/kg oral)	responders at 3 mg/kg [2, 4]	inhibition at 10 µM (M1 receptor)	Step-through latency ([2]; 1 mg/kg oral)	responders at 1 mg/kg [2, 5]	LD50 at 336 h [3]	further results
C(=C1CCNC1)c1cccc(Oc2ccccc2)c1 [Compound 64]	150 s	63%	90%	–	–	–	Duration of immobility ([1]; 1 hour before test): 40 s; Suppression of duration of immobility ([1]; vs saline): 82%
CC(C)N1CCC(=Cc2cccc(Oc3ccccc3)c2)C1 [Compound 84]	–	–	–	176 s	75%	≥ 500 mg/kg	inhibition at 1 µM (M1 receptor): 75%
CCN1CCC(=Cc2cccc(Oc3ccccc3)c2)C1 [Compound 66]	–	–	–	–	–	≥ 500 mg/kg	Step-through latency ([2]; 0.3 mg/kg oral): 221 s; responders at 0.3 mg/kg ([2]; Mus musculus, 0.3 mg/kg oral, mice with latency > 100 seconds, read-out: Ratio of memory): 75%; inhibition at 1 µM (M1 receptor): 82%
CN1CCC(=Cc2cccc(Oc3ccccc3)c2)C1 [Compound 65]	–	–	52%	117 s	50%	≥ 500 mg/kg	–
CCCN1CCC(=Cc2cccc(Oc3ccccc3)c2)C1=O [Compound 11]	182 s	63%	58%	–	–	≥ 500 mg/kg	–
O=C1C(=Cc2cccc(Oc3ccccc3)c2)CCN1CCF [Compound 26]	–	–	87%	196 s	75%	≥ 500 mg/kg	–
CCN1CCC(=Cc2cccc(Oc3ccccc3)c2)C1=O [Compound 10]	127 s	80%	90%	–	–	≥ 500 mg/kg	–
C(=C1CCNC1)c1cccc(Oc2ccccc2)c1 [Compound 63]	–	–	–	–	–	≥ 200 mg/kg	Dead mice (ddY mice): no dead mice
